Tests used:
Protease = Protease (Human immunodeficiency virus 1, UniProt Q9YQ12); assay: Binding affinity to HIV1 protease by ITC analysis
Cathepsin D = Cathepsin D (Homo sapiens, UniProt P07339); assay: Inhibition of cathepsin D (unknown origin)
[1] = Inhibition of pepsin (unknown origin); set-up: species or system Homo sapiens

Protease, sequence (Q9YQ12 whole entry): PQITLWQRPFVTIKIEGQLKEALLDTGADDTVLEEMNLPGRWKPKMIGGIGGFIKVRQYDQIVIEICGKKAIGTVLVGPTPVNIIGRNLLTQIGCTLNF
Cathepsin D, sequence (P07339 65-162 limits assumed): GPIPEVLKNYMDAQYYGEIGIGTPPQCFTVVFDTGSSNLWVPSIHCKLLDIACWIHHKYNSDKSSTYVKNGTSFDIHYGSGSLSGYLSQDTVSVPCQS
Cathepsin D, sequence (P07339 169-412 limits assumed): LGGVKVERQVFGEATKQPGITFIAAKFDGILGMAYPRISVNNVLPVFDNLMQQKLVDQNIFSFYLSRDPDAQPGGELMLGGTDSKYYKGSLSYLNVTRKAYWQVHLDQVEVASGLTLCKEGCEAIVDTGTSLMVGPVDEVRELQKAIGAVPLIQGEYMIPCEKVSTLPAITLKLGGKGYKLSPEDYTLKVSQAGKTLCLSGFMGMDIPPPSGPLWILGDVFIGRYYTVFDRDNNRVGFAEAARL

Row | SMILES | Kd (Protease) | Kd (Cathepsin D) | Kd [1]
1 | CSC[C@H](NC(=O)COc1cccc2cnccc12)C(=O)N[C@@H](Cc1ccccc1)[C@H](O)C(=O)N1CSC(C)(C)C1C(=O)N[C@H]1c2ccccc2C[C@H]1O (stereo partly drawn) | 0.013 nM | – | –
2 | CC1(C)SCN(C(=O)[C@@H](O)[C@H](Cc2ccccc2)NC(=O)[C@H](CS(C)(=O)=O)NC(=O)COc2cccc3cnccc23)C1C(=O)N[C@H]1c2ccccc2C[C@H]1O (stereo partly drawn) | 0.021 nM | – | –
3 | CC1(C)SCN(C(=O)[C@@H](O)[C@H](Cc2ccccc2)NC(=O)COc2ccccc2)C1C(=O)N[C@H]1c2ccccc2C[C@H]1O (stereo partly drawn) | 11.8 nM | 142 nM | 850 nM
4 | Cc1cccc(C)c1OCC(=O)N[C@@H](Cc1ccccc1)[C@H](O)C(=O)N1CSC(C)(C)C1C(=O)N[C@H]1c2ccccc2C[C@H]1O (stereo partly drawn) | 0.14 nM | 22 nM | 345 nM
